Measured values as given in ChEMBL document CHEMBL3507680, “University of Dundee, Gates Library screen for HepG2 cell viability”.

experiment: Human HepG2 cell viability assay in 384 well format; assay type: toxicity, cell-based; parameters: dose 125 nL, time 70.5 hour; cytotoxicity at 70.5 h: concentration not given beside the values; conditions: HepG2 cells, read-out: Inhibition

First: COCc1nc(C(=O)N2CCCC2c2noc(C)n2)cs1 (stereo not given)
Second: Cc1cnn(CC2CCCCN2C(=O)Cc2csc(C)n2)c1 (stereo not given)
The cytotoxicity at 70.5 h of the first is lower: -9.63% for the first, -7.78% for the second.

Compared with `CC(c1cccc(O)c1)N(C)S(N)(=O)=O` (stereo not given), `CCc1ccc(C(=O)NC(C)c2ccc(S(C)(=O)=O)c(F)c2)o1` (stereo not given) is lower in cytotoxicity at 70.5 h: 37% for the first, 13.1% for the second.

First: Cc1nn2c(=O)/c(=C\c3cccs3)sc2nc1=O
Second: Cc1nc(C)c(C(=O)N2Cc3cc(F)ccc3CC2C)o1 (stereo not given)
The cytotoxicity at 70.5 h of the first is lower: -5.48% for the first, -3.47% for the second.

Going from `CCn1ncc(CN2C[C@@H]3CCCN3C[C@H]2CCSC)c1C` to `O=C(c1cccn1Cc1cccs1)N1CCN2CCCCC2C1` (stereo not given), the cytotoxicity at 70.5 h rises from 1.32% to 4.27%.

First: Cc1ncc(CN(C)C(=O)c2ccc3c(c2O)OC(C)(C)C3)s1
Second: CC(=O)NC(C)(C)C(=O)Nc1ncc(Cc2ccc(C)c(F)c2)s1
The cytotoxicity at 70.5 h of the first is lower: -1.48% for the first, -0.712% for the second.

Going from `Cc1cc2c(cc1Cl)C=CC1(CCN(CC(=O)N3CCCC3)CC1)O2` to `CCS(=O)(=O)N1CCC2(CCC(N3CCCC3)c3ccccc32)CC1` (stereo not given), the cytotoxicity at 70.5 h falls from 2.51% to -10.6%.

`CC(Cn1ccnc1)NCc1nncn1C1CCCCC1` (stereo not given) and `Cn1cc(CN2CCc3c(CNC(=O)C4CC4)cncc3C2)cn1` are the same in cytotoxicity at 70.5 h: -1.11% for the first, -1.11% for the second.

First: O=S(=O)(C1CC1)N1CCC2(CC1)CC(Oc1ccccn1)CO2 (stereo not given)
Second: Cc1cccc(CN2CC3(CCN(S(=O)(=O)C4CC4)CC3)OCC2=O)n1
The cytotoxicity at 70.5 h of the first is higher: 2.03% for the first, -0.285% for the second.

Compared with `c1c(CN2CCOCC2)nc2n1CCN(C1CCOCC1)C2`, `O=C(C[C@@H]1COC[C@H]2CN(CC3CCOCC3)C[C@@H]12)N1CCCCO1` is lower in cytotoxicity at 70.5 h: -1.69% for the first, -8.58% for the second.

First: CNC(=O)c1[nH]nc2c1CN(c1cc(C3CCCNC3)nc(C)n1)CC2 (stereo not given)
Second: CN(C)C(=O)c1cc2c(nc1NCC1CC1)CCNCC2
The cytotoxicity at 70.5 h of the first is lower: -10.6% for the first, 29.7% for the second.

Compared with `Cc1cnc(CNc2ccc(C(=O)NCc3ccco3)cc2C)o1`, `COC(=O)c1ccc(N(C(=O)c2cc(Cl)ccn2)C(C)C)c(C)c1` is lower in cytotoxicity at 70.5 h: 6.63% for the first, -2.71% for the second.

Compared with `Cn1c(CO)cnc1SC(C(N)=O)c1ccccc1` (stereo not given), `CN(CCOc1ccccc1)C(=O)Nc1cccn(C)c1=O` is higher in cytotoxicity at 70.5 h: -15.2% for the first, 20.8% for the second.

Going from `Cc1nnc2n1CCN(C(=O)c1cc(C)n(-c3ccccn3)c1C)C2` to `CN(C(=O)c1cccc(Cl)c1)C1CCN(c2ccccn2)CC1`, the cytotoxicity at 70.5 h rises from -14% to 2.1%.

Compared with `COC(=O)c1cccc(C(=O)N2CCN(c3ccc(OC)cc3)CC2)n1`, `Cc1ccc(OC2(C(=O)O)CCN(C(=O)c3ccoc3C)CC2)cn1` is higher in cytotoxicity at 70.5 h: -7.54% for the first, -0.44% for the second.

Going from `CN(C)Cc1nnc(C2CCN(c3ncccn3)CC2)n1C1CC1` to `CNc1cc(C2CN(Cc3cccnc3NC)CCO2)nc(C)n1` (stereo not given), the cytotoxicity at 70.5 h falls from 12.1% to -2.49%.

First: CCOc1ccccc1OCCN(C)Cc1nccn1C
Second: CCN1CCc2c(CNC(=O)c3nccn3C)cncc2C1
The cytotoxicity at 70.5 h of the first is higher: -5.37% for the first, -10.7% for the second.

Compared with `COc1ccc(-c2cnc(N)nc2C2CCCNC2)cc1` (stereo not given), `COc1ccc(CN2CCc3[nH]nc(C(=O)N(C)C)c3C2)cc1` is lower in cytotoxicity at 70.5 h: 0.112% for the first, -8.01% for the second.

Going from `CCCS(=O)(=O)N1CCC2(CC1)CC(=O)N(CCCc1ccccc1)C2` to `O=C1N(CCCc2ccccc2)CCCC1(O)CNCc1ccccc1` (stereo not given), the cytotoxicity at 70.5 h falls from 23.4% to -10.4%.

Going from `CS(=O)(=O)N1CC[C@@H](CC(=O)O)[C@@H](CC2=NCCc3cc(F)ccc32)C1` to `CCS(=O)(=O)N1CCCC(n2nnn(-c3ccccc3)c2=O)C1` (stereo not given), the cytotoxicity at 70.5 h rises from -6.32% to -4.32%.

First: Cc1occc1C(=O)N1CCCC1c1ccc(C(=O)N2CCOCC2)s1 (stereo not given)
Second: Cn1cccc1C1CCCCCN1C(=O)c1ccc(NC2CC2)nc1 (stereo not given)
The cytotoxicity at 70.5 h of the first is lower: 9.73% for the first, 12.8% for the second.

Going from `COc1ccc(-n2ncc(C(C)NCc3cnc(SC)nc3)c2C)cc1` (stereo not given) to `CC(C)Oc1ccc(-c2csc(Cn3ccc(=O)[nH]c3=O)n2)cc1`, the cytotoxicity at 70.5 h rises from -3.63% to -0.0528%.

First: Cc1nc(C)n(C2CCCN(C(=O)Cc3ccc4c(c3)CCC4)C2)n1 (stereo not given)
Second: COc1cccc2c1OCC(C(=O)N1CCN(C3CCCC3)C(=O)C1)C2 (stereo not given)
The cytotoxicity at 70.5 h of the first is higher: -3.72% for the first, -5.59% for the second.

Going from `Cc1ccoc1C(=O)N1C[C@H](OCC2CC2)[C@H]2OCCC[C@H]21` to `CCO[C@@H]1CC[C@H]2[C@H]1OCCN2S(=O)(=O)C1CC1`, the cytotoxicity at 70.5 h falls from -0.347% to -11.4%.

First: O=C(NCN1CCc2ccccc2C1)c1cnccn1
Second: OCCN(Cc1cccnc1)c1cnc2ccccc2n1
The cytotoxicity at 70.5 h of the first is lower: -8.88% for the first, -4.32% for the second.

Compared with `CNS(=O)(=O)c1ccc(C)c(C(=O)NCCNc2ncccn2)c1`, `CN1CCN(S(=O)(=O)c2ccc(Cl)c(Cl)c2)c2cnccc21` is higher in cytotoxicity at 70.5 h: -14.9% for the first, -0.75% for the second.

Going from `CNc1nc(C)c(C(=O)N2CCC(C(O)Cc3ccccc3)CC2)s1` (stereo not given) to `Cc1nc2c(cc1C(=O)O)CCN(CC1CC1)CC2`, the cytotoxicity at 70.5 h rises from -11.8% to -3.49%.

First: O=C(c1ccc(N2CCCC2)nn1)N1CCCc2cc(F)c(F)cc21
Second: O=C(c1cc(F)ccc1O)N1CCN(C2CCSC2)CC1 (stereo not given)
The cytotoxicity at 70.5 h of the first is higher: -1.17% for the first, -8.37% for the second.

First: CC(C)CCN1CCN(C(=O)c2c[nH]c(=O)[nH]2)CC1
Second: Cc1cc2nc(SCC(=O)N3CCOCC3)n(CCC(C)C)c(=O)c2[nH]1
The cytotoxicity at 70.5 h of the first is lower: -8.02% for the first, -0.683% for the second.

Going from `Cn1cc(S(=O)(=O)N2CCN(S(=O)(=O)c3ccc(Br)s3)CC2)cn1` to `Cn1cc(C(O)CNC(=O)c2ccc(F)cc2Cl)cn1` (stereo not given), the cytotoxicity at 70.5 h falls from -8.9% to -13%.

First: CC(C)NC(=O)c1cccc(NC(=O)CCCc2nc(C(C)C)no2)c1
Second: Cc1ccc(NC(=O)CC2Cn3ncnc3NC2=O)cc1C (stereo not given)
The cytotoxicity at 70.5 h of the first is higher: 5.5% for the first, -8.36% for the second.

Compared with `CSCC(C)(O)CNC(=O)c1cccc(Cl)c1Cl` (stereo not given), `Cc1ccc(CNC(=O)COc2ccc3c(c2)OCC3O)cc1` (stereo not given) is lower in cytotoxicity at 70.5 h: -5.93% for the first, -7.79% for the second.

Compared with `CCC[C@@H]1CN(C(=O)CCc2ccco2)C[C@H]1NS(C)(=O)=O`, `CCOCCN1C[C@H](C(=O)Nc2cccnc2)[C@@H]2CCO[C@@H]2C1` is lower in cytotoxicity at 70.5 h: 29% for the first, -4.15% for the second.

Going from `CCc1nnc(C2Cc3ccccc3CN2Cc2cc(C)no2)o1` (stereo not given) to `CCc1ccc(CNC(=O)NCc2nnc3n2CCC3)s1`, the cytotoxicity at 70.5 h rises from -4.33% to 17.1%.

Compared with `CNS(=O)(=O)CC(=O)N(C1CCCC1)C1CC1`, `O=C(CC(F)(F)F)N1C[C@H]2CN(CC3CC3)C(=O)[C@H]2C1` is higher in cytotoxicity at 70.5 h: -12.4% for the first, -5.1% for the second.

First: CN(C)c1cc(C2CCCN(C(=O)c3ccc(=O)[nH]n3)C2)ccn1 (stereo not given)
Second: COc1cccc([C@@H]2CCN(Cc3c[nH]c(C)n3)C[C@H]2O)c1
The cytotoxicity at 70.5 h of the first is lower: -1.67% for the first, 17.7% for the second.

Going from `CCc1cnc(N2C[C@@H]3[C@@H](C(=O)NCC(C)C)CCS(=O)(=O)[C@@H]3C2)nc1` to `COCc1ncc(CN2CCC3(CCNCC3)CC2)cn1`, the cytotoxicity at 70.5 h rises from -5.83% to -2.36%.

Compared with `COc1ccccc1Cc1cc(O)nc(NC(C)CN(C)C)n1` (stereo not given), `CC[C@H](C)[C@@H](CO)NC(C)Cc1ccc(C)cc1` (stereo not given in full) is lower in cytotoxicity at 70.5 h: 2.81% for the first, -2% for the second.

First: Cc1ccc(NC(C(N)=O)c2ccc(F)cc2)cc1 (stereo not given)
Second: CN1C(=O)C2(CC(=O)Nc3[nH]ncc32)c2ccc(F)cc21 (stereo not given)
The cytotoxicity at 70.5 h of the first is higher: -0.0602% for the first, -15.5% for the second.

First: O=C(c1ccc[nH]1)N1CCC2(CC1)COCCN(c1nccs1)C2
Second: CC1CN(C(=O)Nc2cccc(CN3CCOC3=O)c2)CCO1 (stereo not given)
The cytotoxicity at 70.5 h of the first is higher: -1.47% for the first, -9.66% for the second.

Compared with `c1cnnc(N2CCCC2CNc2ncnc3sccc23)c1` (stereo not given), `COc1nc2c(cc1C(=O)N(C)Cc1noc3c1CCCC3)CCC2` is higher in cytotoxicity at 70.5 h: -7.82% for the first, -0.83% for the second.
